TGI and GI50 data for nine compounds are collected here from PubChem BioAssay (NCI).

Test systems include NCI-H460 lung; SN12C renal; MALME-3M melanoma; RPMI-8226 leukemia; TK-10 renal; UO-31 renal; COLO 205 colon; EKVX NSCLC; CAKI-1 renal; OVCAR-8 ovarian.
What all share (assay): inhibition of tumour cell growth, NCI panel, 48 h

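Dose response: 5 concentrations. Exposure: 48 h. Format: 96-well plates. Endpoint: linear interpolation; highest concentration if not reached. At the GI50, growth is halved. TGI: total growth inhibition.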 Where only a bound is given, the exact number is not on record here.

On to `CCOC(=O)[C@@]1(C)C=C2O[C@@H]3OC4(CCCCC4)O[C@@H]3C2=C2C(O)=CC=C(O)[C@]21C(=O)OC`, for which the TGI in the experiment on NCI-H460 lung, with SN12C renal, in the experiment on MALME-3M melanoma, with RPMI-8226 leukemia, in the experiment with TK-10 renal and in the experiment with UO-31 renal was more than 68 µM each time. The TGI with COLO 205 colon, with EKVX NSCLC, with CAKI-1 renal and in the experiment with OVCAR-8 ovarian was more than 68 µM in each case.

With `O=C1NCc2ccc3c(-c4cccc(Cl)c4)c[nH]c3c21`, the GI50 was 0.201 µM with NCI-H460 lung; 0.438 µM in the experiment with SN12C renal; 0.191 µM with MALME-3M melanoma; 0.257 µM in the experiment with RPMI-8226 leukemia; 7.12 µM in the experiment with TK-10 renal; 0.465 µM in the experiment on UO-31 renal. Also, the GI50 with COLO 205 colon was 0.297 µM; in the experiment on EKVX NSCLC it was 0.381 µM; in the experiment with CAKI-1 renal it was 0.205 µM; in the experiment with OVCAR-8 ovarian it was 0.503 µM. Moreover, the TGI is more than 38.2 µM in the experiment with NCI-H460 lung; more than 50 µM in the experiment with SN12C renal; more than 50 µM in the experiment with MALME-3M melanoma; 49 µM in the experiment on RPMI-8226 leukemia; more than 50 µM in the experiment on TK-10 renal; more than 23.5 µM with UO-31 renal. Moreover, the TGI in the experiment on EKVX NSCLC, with CAKI-1 renal and with OVCAR-8 ovarian was more than 50 µM in each case.

`CS(=O)(=O)CCNCc1nc(-c2ccc3ncnc(Nc4ccc(F)c(Cl)c4)c3c2)cs1`: the GI50 is 18.7 µM with NCI-H460 lung; 15.6 µM with SN12C renal; more than 23.6 µM in the experiment on MALME-3M melanoma; more than 21.4 µM in the experiment with RPMI-8226 leukemia; 0.232 µM in the experiment with TK-10 renal; 6.81 µM in the experiment with UO-31 renal. Also, the GI50 was more than 20.5 µM with COLO 205 colon, 0.0927 µM in the experiment on EKVX NSCLC, 1.47 µM in the experiment with CAKI-1 renal and 14.4 µM in the experiment on OVCAR-8 ovarian. For the same compound, the TGI in the experiment with NCI-H460 lung, in the experiment with SN12C renal, with MALME-3M melanoma, with RPMI-8226 leukemia, in the experiment with TK-10 renal and with UO-31 renal was more than 25 µM in each case. For the same compound, the TGI with COLO 205 colon, in the experiment on EKVX NSCLC, with CAKI-1 renal and with OVCAR-8 ovarian was more than 25 µM throughout.

`CNC(=O)c1cc(OC2CCC(NC(=O)Nc3ccc(Cl)c(C(F)(F)F)c3)CC2)ccn1` (centres undefined): the GI50 with NCI-H460 lung was 6.92 µM; with SN12C renal, 6.2 µM; in the experiment with MALME-3M melanoma, 9.64 µM; in the experiment with RPMI-8226 leukemia it was 2.86 µM; with TK-10 renal, 18.4 µM; in the experiment with UO-31 renal, 7.09 µM. In addition, the GI50 was 8.81 µM in the experiment with COLO 205 colon, 7.46 µM with EKVX NSCLC, 6.75 µM with CAKI-1 renal and 7.89 µM in the experiment with OVCAR-8 ovarian. In addition, the TGI in the experiment with NCI-H460 lung stood at 28.6 µM; in the experiment on SN12C renal it was 22.1 µM; in the experiment on MALME-3M melanoma, 34.3 µM; with RPMI-8226 leukemia, 14.8 µM; in the experiment with TK-10 renal, 49.2 µM; with UO-31 renal, 21.7 µM. Further, the TGI in the experiment on COLO 205 colon was found to be 22.3 µM; in the experiment on EKVX NSCLC it was 58.7 µM; with CAKI-1 renal, 31.9 µM; with OVCAR-8 ovarian it was 39.6 µM.

For `Nc1ccn(CCOC(=O)c2ccccc2)c(=O)n1`, the TGI with NCI-H460 lung, with SN12C renal, in the experiment on MALME-3M melanoma, in the experiment with RPMI-8226 leukemia, in the experiment with TK-10 renal and in the experiment with UO-31 renal was more than 100 µM throughout. In addition, the TGI in the experiment with COLO 205 colon, in the experiment on EKVX NSCLC, with CAKI-1 renal and in the experiment on OVCAR-8 ovarian was more than 100 µM throughout.

Regarding `COc1ccc(-c2nn3ncccc3c2-c2ccnc(Nc3ccc(Cl)c(C(F)(F)F)c3)n2)cc1`, the GI50 is 8.45 µM in the experiment with NCI-H460 lung; 9.54 µM in the experiment on SN12C renal; 10.8 µM in the experiment with MALME-3M melanoma; 8.28 µM in the experiment on RPMI-8226 leukemia; 13.2 µM in the experiment on TK-10 renal; 6.32 µM with UO-31 renal. The GI50 in the experiment on COLO 205 colon was 12.7 µM; with EKVX NSCLC it was 7.84 µM; in the experiment with CAKI-1 renal, 12.4 µM; in the experiment with OVCAR-8 ovarian, 8.58 µM. In addition, the TGI in the experiment with NCI-H460 lung, with SN12C renal, in the experiment with MALME-3M melanoma, in the experiment with RPMI-8226 leukemia, with TK-10 renal and in the experiment with UO-31 renal was more than 25 µM in each case. Further, the TGI in the experiment with COLO 205 colon, with EKVX NSCLC, with CAKI-1 renal and in the experiment with OVCAR-8 ovarian was more than 25 µM throughout.

In the case of `O=P(O)(CCP(=O)(O)c1ccccc1)c1ccccc1`, the TGI with NCI-H460 lung, in the experiment on SN12C renal, with MALME-3M melanoma, in the experiment on RPMI-8226 leukemia, in the experiment on TK-10 renal and in the experiment on UO-31 renal was more than 100 µM throughout. For the same compound, the TGI in the experiment with COLO 205 colon, with EKVX NSCLC, with CAKI-1 renal and with OVCAR-8 ovarian was more than 100 µM each time.

On to `C=C1CC2(OC1=O)C(=O)N(CCCCCCCN1C(=O)C3(CC(=C)C(=O)O3)c3ccccc31)c1ccccc12` (centres undefined), for which the GI50 was 2.9 µM in the experiment on NCI-H460 lung; 1.08 µM in the experiment with SN12C renal; 0.955 µM with MALME-3M melanoma; 0.841 µM in the experiment with RPMI-8226 leukemia; 2.19 µM in the experiment with TK-10 renal; 3.44 µM with UO-31 renal. Also, the GI50 is 1.38 µM in the experiment on COLO 205 colon, 9.35 µM with EKVX NSCLC, 1.4 µM with CAKI-1 renal and 1.16 µM in the experiment with OVCAR-8 ovarian. Further, the TGI with NCI-H460 lung is 12.3 µM; with SN12C renal it was 2.72 µM; in the experiment on MALME-3M melanoma, 2.09 µM; in the experiment on RPMI-8226 leukemia it was 3.33 µM; with TK-10 renal, 8.32 µM; in the experiment on UO-31 renal, 9.95 µM. The TGI in the experiment with COLO 205 colon was 5.58 µM; with EKVX NSCLC, 19.3 µM; in the experiment with CAKI-1 renal, 5.96 µM; in the experiment on OVCAR-8 ovarian it was 5.05 µM.

As to `COc1cc([C@H]2c3cc4c(cc3O[C@@]3(O)COC(=O)[C@@H]23)OCO4)cc(OC)c1OC`, the TGI with NCI-H460 lung, in the experiment with SN12C renal, in the experiment on MALME-3M melanoma, in the experiment with RPMI-8226 leukemia, in the experiment on TK-10 renal and in the experiment on UO-31 renal was more than 100 µM each time. Further, the TGI in the experiment on COLO 205 colon, in the experiment on EKVX NSCLC, in the experiment on CAKI-1 renal and in the experiment with OVCAR-8 ovarian was more than 100 µM each time.
